Test results as given in patent EP1383793B1 (priority 2000, dated 2001).
No end group written: not given here.

Columns and labels:
IR [1] = target: T1, IR (Homo sapiens, UniProt P06213); experiment: Phage ELISA, binding of phage-displayed peptides to IR
T1 construct: composed of the extracellular domains of both the α and β chains of the natural receptor; made in house; background b13 names human embryonic kidney 293 cells for the Bass et al. construct
Description: Amino acid sequences comprising the motif of Formulas 1 through 10. […] Fifty microliters of this solution was added to an appropriate number of wells in a 96-well microtiter plate (MaxiSorp plates, Nunc) and incubated overnight at 4°C. […] To isolate specific binders, each library was panned against a soluble form of the human IR. This IR is composed of the extracellular domains of both the α and β chains of the natural receptor, as well as the constant domain from immunoglobulin Fc, retaining the β-α-α-β structure described above. Because the IR is expressed in a eukaryotic system, disulfide bond formation and glycosylation patterns should mimic the wild-type receptor. The details of this recombinant protein construct are described in Bass et al. (1996). Phage ELISA. […] The wells were blocked with 200 µl of MPBS for 1.5 h at RT. […] Peptides were added as noted below and allowed to incubate at RT for 3 h. The plates were washed 3 times with PBST. A solution of 1:3000 diluted HRP:Anti-M13 conjugate at 100 µl per well of was added for 1 h. Following a repeat of the washing, 100 µl of ABTS was added for 15-30 min. […] Phage ELISA. […] Peptides were added as noted below and allowed to incubate at RT for 3 h. […] A solution of 1:3000 diluted HRP:Anti-M13 Conjugate at 100 µl per well of was added for 1 h. Following a repeat of the washing, 100 µl of ABTS was added for 15-30 min. The OD405 was measured using a SpectraMax 340 Microplate Spectrophotometer.

[2] = target: human IGF-1 receptor (HIGF-1R) (Homo sapiens, UniProt P08069); experiment: 125I-IGF-1 competition binding assay on solubilised purified receptor
human IGF-1 receptor (HIGF-1R), sequence (P08069 31-736 limits assumed): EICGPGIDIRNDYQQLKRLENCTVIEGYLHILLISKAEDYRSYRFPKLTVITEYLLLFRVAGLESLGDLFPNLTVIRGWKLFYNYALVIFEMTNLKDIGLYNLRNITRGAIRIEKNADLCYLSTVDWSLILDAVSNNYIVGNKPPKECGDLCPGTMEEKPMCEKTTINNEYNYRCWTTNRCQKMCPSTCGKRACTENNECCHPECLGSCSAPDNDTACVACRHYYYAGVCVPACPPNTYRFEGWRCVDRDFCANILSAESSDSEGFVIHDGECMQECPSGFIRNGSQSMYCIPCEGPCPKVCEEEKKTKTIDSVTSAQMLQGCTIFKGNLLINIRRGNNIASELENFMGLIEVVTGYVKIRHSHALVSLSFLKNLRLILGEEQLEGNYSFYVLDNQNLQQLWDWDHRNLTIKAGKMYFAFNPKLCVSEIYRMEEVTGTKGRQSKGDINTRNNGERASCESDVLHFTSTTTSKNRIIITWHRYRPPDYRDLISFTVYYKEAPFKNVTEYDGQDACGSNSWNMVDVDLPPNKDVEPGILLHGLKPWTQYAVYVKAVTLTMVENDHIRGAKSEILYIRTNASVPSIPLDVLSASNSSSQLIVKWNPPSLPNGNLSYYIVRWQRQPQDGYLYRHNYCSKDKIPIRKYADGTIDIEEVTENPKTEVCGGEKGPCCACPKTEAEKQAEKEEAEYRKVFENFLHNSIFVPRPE
human IGF-1 receptor (HIGF-1R), sequence (P08069 741-1367 limits assumed): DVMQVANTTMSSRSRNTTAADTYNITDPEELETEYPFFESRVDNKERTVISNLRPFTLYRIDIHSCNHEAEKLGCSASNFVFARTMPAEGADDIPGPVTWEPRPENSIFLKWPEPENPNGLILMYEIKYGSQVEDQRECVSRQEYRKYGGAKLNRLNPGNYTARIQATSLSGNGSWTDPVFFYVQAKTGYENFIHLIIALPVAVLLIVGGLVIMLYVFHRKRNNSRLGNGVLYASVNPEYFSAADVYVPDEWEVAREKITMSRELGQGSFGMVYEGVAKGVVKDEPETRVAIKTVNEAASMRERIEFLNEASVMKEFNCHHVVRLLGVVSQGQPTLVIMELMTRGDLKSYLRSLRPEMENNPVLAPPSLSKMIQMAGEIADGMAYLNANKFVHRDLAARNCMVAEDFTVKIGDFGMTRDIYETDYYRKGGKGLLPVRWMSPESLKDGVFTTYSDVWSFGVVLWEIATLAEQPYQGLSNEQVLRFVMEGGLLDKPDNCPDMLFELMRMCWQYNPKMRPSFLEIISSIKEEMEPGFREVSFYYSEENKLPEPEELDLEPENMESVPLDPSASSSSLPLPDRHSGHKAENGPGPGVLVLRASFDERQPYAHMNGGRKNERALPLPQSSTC

[3] = Precipitate in diluted peptide stock prior to adding to the fat cell assay; solubility under assay conditions; assay type: physicochemical; conditions: diluted stock prior to adding to assay
IGF-1R [4] = target: T2, IGF-1R (Homo sapiens, UniProt P08069); experiment: Phage ELISA, competition of phage binding by soluble synthetic peptides, IGF-1R-coated wells; conditions: IGF Receptor, H2 Phage
T2 construct: Soluble IGF-1R was obtained from R&D Systems; purchased R&D Systems 391-GR/CF
T2 sequence (P08069 31-736 limits assumed): as the sequence (P08069 31-736 limits assumed) above
T2 sequence (P08069 741-935 limits assumed): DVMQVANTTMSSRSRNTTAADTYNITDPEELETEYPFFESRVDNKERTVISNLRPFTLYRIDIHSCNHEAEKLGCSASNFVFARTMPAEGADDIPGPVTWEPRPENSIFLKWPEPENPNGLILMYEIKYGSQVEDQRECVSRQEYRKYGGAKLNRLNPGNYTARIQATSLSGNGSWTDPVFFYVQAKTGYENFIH
Description: (§1) Phage ELISA. […] The wells were blocked with 200 µl of MPBS for 1.5 h at RT. Phage were added at 100 µl per well. Peptides were added as noted below and allowed to incubate at RT for 3 h. The plates were washed 3 times with PBST. A solution of 1:3000 diluted HRP:Anti-M13 conjugate at 100 µl per well of was added for 1 h. Following a repeat of the washing, 100 µl of ABTS was added for 15-30 min.
(§2) Peptide Competition. […] Twenty microliters of the stock synthetic-peptide solution was added to Row A. A series of 20 µl into 100 µl dilutions were performed until Row G. Twenty microliters were discarded from Row G to maintain 100 µl per well. Row H was reserved as no peptide wells. […] The volume was maintained by the addition of 18 µl of the phage solution to Row A.
(§3) Phage ELISA. […] The wells were blocked with 200 µl of 2% (w/v) Carnation non-fat dry milk in PBS for 1.5 h at RT. Phage were added at 100 µl per well. Peptides were added as noted below and allowed to incubate at RT for 3 h. The plates were washed 3X with PBST. A solution of 1:3000 diluted HRP:Anti-M13 Conjugate at 100 µl per well of was added for 1 h. Following a repeat of the washing, 100 µl of ABTS was added for 15-30 min. The OD405 was measured using a SpectraMax 340 Microplate Spectrophotometer.
(§4) Peptide Competition. Peptide Competition Curves were produced during the phage ELISA across rows in triplicate. The stock synthetic peptide solution was added to Column 12 so that the total volume totaled 150 µl (additional phage solution was added when necessary). A serial dilution was made by transferring 50 µl from Column 12 into 100 µl in Column 11, 50 µl from Column 11 into 100 µl in Column 10, and continuing the serial dilution until Column 2. Fifty microliters were discarded from Column 2 to maintain 100 µl per well. Column 1 was reserved as no peptide wells.
(§5) A p53-like peptide that binds to MDM2 was used as a negative control.

Insulin receptor = target: T3, Insulin receptor (Homo sapiens, UniProt P06213); experiment: Heterogeneous time-resolved fluorescence assay (TRFA) on insulin receptor; assay type: binding
T3 construct: composed of the extracellular domains of both the α and β chains of the natural receptor; made in house; background b13 names human embryonic kidney 293 cells for the Bass et al. construct
T3 sequence (P06213 28-758 limits assumed): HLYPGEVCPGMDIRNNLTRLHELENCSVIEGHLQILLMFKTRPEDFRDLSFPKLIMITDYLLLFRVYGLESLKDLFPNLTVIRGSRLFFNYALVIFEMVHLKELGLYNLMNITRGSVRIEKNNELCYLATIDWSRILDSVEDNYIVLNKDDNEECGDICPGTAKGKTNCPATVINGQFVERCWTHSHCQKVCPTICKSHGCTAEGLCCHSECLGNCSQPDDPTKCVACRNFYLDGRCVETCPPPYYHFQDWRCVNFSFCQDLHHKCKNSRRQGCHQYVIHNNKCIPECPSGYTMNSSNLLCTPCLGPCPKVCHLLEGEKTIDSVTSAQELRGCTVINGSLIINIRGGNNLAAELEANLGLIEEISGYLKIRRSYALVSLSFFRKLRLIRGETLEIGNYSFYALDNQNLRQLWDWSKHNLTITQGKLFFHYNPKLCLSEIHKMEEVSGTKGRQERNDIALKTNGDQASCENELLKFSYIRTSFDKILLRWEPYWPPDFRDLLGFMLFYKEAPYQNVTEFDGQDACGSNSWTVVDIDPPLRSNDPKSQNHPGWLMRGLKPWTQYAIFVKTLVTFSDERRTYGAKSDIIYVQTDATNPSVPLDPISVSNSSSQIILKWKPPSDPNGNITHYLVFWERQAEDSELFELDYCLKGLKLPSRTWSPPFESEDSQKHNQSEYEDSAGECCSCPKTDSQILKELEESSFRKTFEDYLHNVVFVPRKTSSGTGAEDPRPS
T3 sequence (P06213 763-956 limits assumed): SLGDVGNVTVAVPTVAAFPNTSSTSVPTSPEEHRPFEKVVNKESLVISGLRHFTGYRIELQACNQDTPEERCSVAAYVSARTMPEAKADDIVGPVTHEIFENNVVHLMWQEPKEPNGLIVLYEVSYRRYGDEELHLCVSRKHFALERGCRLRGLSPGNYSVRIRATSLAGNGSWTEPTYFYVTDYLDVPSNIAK
Description: In this assay, saEu forms a ternary complex with bP and IR (i.e., IR:bP:saEu complex). The TRFD assay format is well established, sensitive, and quantitative (Tompkins et al., 1993). The assay can use a single-chain antibody or a biotinylated peptide.
In these assays, soluble IR is coated on the surface of microtiter wells, blocked by a solution of 0.5% BSA and 2% non-fat milk in PBS, and then incubated with biotinylated peptide or rVab. Unbound bP is then washed away and saEu is added to complex with receptor-bound bP. Upon addition of the acidic enhancement solution, the bound europium is released as free Eu^3+ which rapidly forms a highly fluorescent and stable complex with components of the enhancement solution. The IR:bP bound saEu is then converted into its highly fluorescent state and detected by a detector such as Wallac Victor II (EG&G Wallac, Inc.)
• a. Heterogeneous Time-Resolved Fluorescence Assay. […] The plates were blocked with TBS containing 2% milk and 0.5% BSA for 1 h at RT followed by three TBS washes. […] After TBS wash, europium-labeled streptavidin at 1 µg/ml in assay buffer (100 mM Tris-HCl, pH 7.8; 150 mM NaCl; 0.5% BSA; 0.05% bovine Ig; 0.05% NaN3; 0.01% Tween-20) was added to the plates and incubated for 1 h. To test binding of rVab antibodies to IR, Eu-labeled rVab antibodies in assay buffer were added to the plates and incubated for 2 h to overnight. After incubation with Eu-labeled streptavidin (for peptide test) or europium-labeled rVabs, the plates were washed 5 times with Tris-buffered saline (pH 7.5) containing 0.1 % Tween-20 (TTBS) and tapped dry. Sixty microliters of EG&G Wallac enhancement solution (100 mM acetone-potassium hydrogen pthalate, pH 3.2; […] 2-naphtyltrifluoroacetate; […] tri(n-octyl)-phosphine oxide; 0.1 % Triton X-100) was added into each well, and the plates were placed onto a shaker for 20 min at RT. […] Homogeneous Time-Resolved Fluorescence Assay. […] For library screening, 20 µM of small organic molecules in 2 % DMSO are included in the mixture.

adipocytes = experiment: 3H-glucose uptake into adipocytes (fat cell assay, FFC); assay type: cell-based, Mouse; conditions: Subjective ranking; basal and sub maximal insulin; includes series A
IR [5] = target: T1, IR; experiment: Phage ELISA, competition of phage binding by soluble synthetic peptides, IR-coated wells; conditions: Insulin Receptor
Description: as §1, §2, §3, §4, §5

IGF-1R [6] = target: T2, IGF-1R; experiment: Heterogeneous time-resolved fluorescence (Eu) competitive binding assay on IGF-1R
Description: The TRFD assay format is well established, sensitive, and quantitative (Tompkins et al., 1993).
In these assays, soluble IGF-1 receptor is coated on the surface of microtiter wells, blocked by PBS containing milk and BSA, and then incubated with biotinylated peptide or rVab. Unbound bP is then washed away and saEu is added to complex with receptor-bound bP. Upon addition of the acidic enhancement solution, the bound europium is released as free Eu^+3 which rapidly forms a highly fluorescent and stable complex with components of the enhancement solution.
The plates were blocked with PBS containing 2% non-fat milk and 0.05% BSA for 2 h at RT, followed by three PBS washes. […] The plates were then washed 5 times with TTBS (TBS buffer containing Tween-20; Wallac) and tapped dry.

[7] = test system: FDCP2 cells (NIH) which express IGF-1R; experiment: FDCP2 cell proliferation (WST-1), agonism; assay type: cell-based; conditions: not against IGF-1 R- cells
Description: Agonistic and antagonistic activities of the IGF-1-specific peptides were tested in FDCP2 cells (NIH) which express IGF-1R. […] Agonism activity assays were performed in a total volume of 100 µl in 96 well plates (flat bottom).
Proliferation assays were performed using WST-1 reagent. The WST-1 tetrazolium salt (slightly red) is cleaved to formazan (dark red) by the succinate-tetrazolium reductase system, which is active only in viable cells. An increase in the number of cells results in an increase in the overall activity of the dehydrogenase which results in a higher absorbance at 450 nm. […] Proliferation was measured by absorbance at 450 nm.

IGF-1R [8] = target: T2, IGF-1R; experiment: Competitive phage ELISA with IGF-1 on IGF-1R; assay type: binding
Description: For IC50 determinations in a competitive ELISA, microtiter plates were coated with IGF-1R and blocked as described. Phage were prepared as described. Prior to addition of phage to plates, the peptide or recombinant variable antibody or fragment ("rVab"), or an appropriate control, was diluted in PBS and added to duplicate wells (100 µl/well). After incubation for 1 h at RT, the prepared phage were added to each well (100 µl/well) without removing the peptide or rVab solution. After incubation for 1 h at RT, the wells were washed and the color developed as described above.
The clones were next analyzed for binding to the receptor's active site (Figures 20A and 20B).
For IC50 determinations, microtiter plates were coated with IGF-1R and blocked as described. Phage and soluble rVabs were prepared as described above. […] After incubation for 1 h at RT, the wells were washed and the color was developed as described above.

T1 sequence (P06213 28-758 limits assumed): as the sequence (P06213 28-758 limits assumed) above
T1 sequence (P06213 763-956 limits assumed): as the sequence (P06213 763-956 limits assumed) above

| binding to IR when expressed as phage (IR [1]) | affinity for HIGF-1R [2] | Ratio ([2]; Kd HIGF1R / Kd HIR) | Comments (precipitation) [3] | n (Hill plot) (IGF-1R [4]) | binding of biotinylated peptide to IR (Insulin receptor) | n (Hill plot) (IR [5]; 20D3 Phage) | n (Hill plot) (IR [5]; H2 Phage) | binding of biotinylated peptide to IGF-1 R (IGF-1R [6]) | inhibition of phage binding to immobilized IGF-1R by IGF-1 (IGF-1R [8]) | competition with binding of 12H10 to IR (Insulin receptor) | Compound | Resp. (adipocytes) | activity toward IGF-1 R+ cells in cell culture [7] |
| --- | --- | --- | --- | --- | --- | --- | --- | --- | --- | --- | --- | --- | --- |
| do not have detectable binding | high affinity | 0.1 | Precipitates | 0.96 | micromolar range | 0.83 | 0.46 | nM range | – | – | CC(C)[C@H](NC(=O)[C@H](Cc1ccccc1)NC(=O)[C@H](Cc1c[nH]c2ccccc12)NC(=O)[C@H](CC(=O)O)NC(=O)[C@H](Cc1ccc(O)cc1)NC(=O)[C@H](Cc1ccccc1)NC(=O)[C@H](CC(N)=O)NC(=O)[C@H](C)NC(=O)[C@H](C)NC(=O)[C@H](CC(=O)O)NC(=O)CNC(=O)[C@H](CS)NC(=O)[C@@H]1CCCN1C(=O)[C@H](CCCNC(=N)N)NC(=O)[C@H](C)NC(=O)[C@H](Cc1c[nH]c2ccccc12)NC(=O)[C@H](CS)NC(=O)[C@H](CC(=O)O)NC(=O)[C@H](CCCCN)NC(=O)[C@H](Cc1ccc(O)cc1)NC(=O)[C@@H](N)CC(=O)O)C(=O)N[C@@H](CCC(N)=O)C(=O)N[C@@H](CCC(N)=O)C(=O)N[C@@H](C)C(=O)N[C@@H](CO)C(=O)N[C@@H](CCCCN)C(=O)N[C@@H](CCCCNC(=O)CCCC[C@@H]1SC[C@@H]2NC(=O)N[C@@H]21)C(N)=O [Clone C1] | 0 | – |
| – | – | – | – | – | – | – | – | – | – | – | LCQRLGVGWPGWLSGWCA [Clone H5] | – | agonistic activity |
| do not have detectable binding | – | – | – | – | – | – | – | – | could be inhibited with IGF-1 | do not compete | WNTVDPFYHKLSELLREKK [Clone B6] | – | – |
